Laboratory results from patent EP1379634B1 (THE UNIVERSITY OF GEORGIA RESEARCH FOUNDATION, INC., priority 2001, dated 2002).
Residues, ends and D or L forms follow the SMILES beside them. *: point of attachment. AFC = O=c1cc(C(F)(F)F)c2ccc(N*)cc2o1; Cbz = O=C(OCc1ccccc1)*; CH2F = FC*

Legend:
[1] = tested on: Trypsin; assay: Selectivity test (Steps VI and IX), Trypsin; format: biochemical, human; details: pH 8.0, substrate Z-R-AFC
Procedure: In order to perform the assay, the vehicle (for Step VI) or inhibitor (for Step IX) were incubated with the appropriate substrate in the correct assay buffer and allowed to equilibrate. Subsequently, the protease was added, and the assay was allowed to incubate for an appropriate time. The concentrations used in this experiment were as follows: Vehicle was set up at 4 X 10^-5 M in final assay buffer; Inhibitor was set up at 3 X 10^-10 M in the final assay buffer. Preferably the dosages employed should be the minimal amount of vehicle or inhibitor necessary to induce inhibition. […] Substrates were set up based upon the preferred substrate for cleavage of the particular enzyme.
Positive controls were set up similarly as described for test controls, except that a solvent blank was added in substitution for the inhibitor or vehicle (in a volume equal to the volume of inhibitor or vehicle addition). All of the inhibitors and vehicles could be dissolved in dimethylsulfoxide (DMSO), and therefore, this was the solvent of choice. Negative controls were set up by adding the inhibitor or vehicle and the preferred substrates in a tube without the protease. All potential non-proteolytic liberation of AFC was therefore controlled for in this tube.
All controls were set up in triplicate, and experiments were repeated a minimum of five times.
Percent inhibition was calculated as: %Inhibition = ((AFC positive for "SI"−AFC negative for "SI")−(AFC test−AFC negative for "SI"))/(AFC positive for "SI"−AFC negative for "SI") × 100 [formula]
In this preliminary test, we employed the following human-derived enzymes (with indicated mechanistic class in parentheses): Cathepsin B (cysteine), Cathepsin L (cysteine), Cathepsin H (cysteine), Cathepsin D (aspartic), Trypsin (serine), the purified Taenia solium cysteine protease, and the Taenia solium crude mix. Cathepsin B was prepared in an assay buffer of 10 mM L-cysteine in 0.4 M Citrate buffer, pH 6.1, using Z-ARR-AFC as the cleavage substrate. Cathepsin L was prepared in an assay buffer of 10 mM L-cysteine in 0.4 M Citrate buffer, pH 5.5, using Z-FR-AFC as the cleavage substrate. Cathepsin H was prepared in an assay buffer of 10 mM L-cysteine in 0.15 M PBS buffer, pH 6.8, using L-R-AFC as the cleavage substrate. Cathepsin D was prepared in an assay buffer of 0.15 M PBS, pH 7.1, using Z-RGFFP-AFC as the cleavage substrate. Trypsin was prepared in an assay buffer of 0.15 M PBS, pH 8.0, supplemented with 100 mM CaCl2 and with Z-R-AFC as the cleavage substrate. Enzyme was incubated so that it was at least 50 times less than the concentration of substrate in order to insure saturating conditions.

[2] = tested on: purified Taenia solium cysteine protease; assay: Substrate cleavage screen of AFC-linked peptides (Step II), purified protease; format: biochemical; details: 0.4 M Citrate, pH 4.9, 0.01 M cysteine, 18 h, 37 °C
Procedure: In this step, the most efficacious substrate for detection of the cysteine protease (high Kcat substrate) was determined in vitro along with those substrates which were not well cleaved (low kcat substrates). From this point forward, the following conditions refer to all assays: "assay buffer" refers to 0.4 M Citrate, pH 4.9 (the pH optima of the protease). Incubation time was 18 hours at 37°C. These conditions were determined by our preliminary data to be best for kinetic evaluation of the protease. […] The experiments were conducted in 6X50 […] Borosilicate mini-culture tubes (Fisher Scientific), and a fluorometer (Turner) was employed for detection of AFC cleavage.
Since the full 8,420 amino acid possibilities for cleavage were not available, representative substrates were employed. […] In order to choose this subset, representative amino acids (i.e., selected from the categories of acidic, basic, nonpolar, uncharged) were chosen so as to create as many categories of motifs as feasible for the P3-P1 positions with a set of 67 small peptides (see lists at Fig. 4a and Fig. 4b). The target cysteine protease from Taenia solium was isolated using the purification methods described previously in the patent WO 00/63350.
Approximately 1 ug (or a proteolytically detectable amount) of the purified target cysteine protease was incubated individually, with 1 ug of each of the available substrates in 500 uL of assay buffer. During this setup, the substrate was pre-incubated in the assay buffer for a short period of time (20 minutes) in order to reach an equilibrated status before the addition of the protease. Cleavage assessments were based upon the property of the protease to cleave synthetic peptide substrates linked at the C-terminus to 7-Amino-4-Trifluoromethyl Coumarin (AFC) as previously described. AFC linked tripeptides, dipeptides, and monopeptides, (with a variety of permutations at P3-P1) were available from Enzyme Systems Products (Livermore, CA), and were used as the source of the subset. Following incubation of enzyme preparations overnight (18 h, 37 °C) with peptide in assay buffer (Citrate, pH 4.9, supplemented with 0.01 M cysteine), free AFC concentrations were measured fluorometrically (excitation 405 nm, emission 505 nm). The proteolytic cleavage released the AFC group, which was measurable as a free molecule by a standard fluorometer and converted into molar quantities, based upon a previously established standard curve. The simplicity of AFC detection by the fluorometer was a key factor which expedited and simplified the procedures.
In the assay, 1 ug of the purified Taenia cysteine protease was added to a saturating amount of Z-Phe-Arg-AFC (4X10^-5 M) in assay buffer. The experiment was conducted in triplicate and repeated at least 5 times until we were certain that variability in AFC cleavage was not statistically significant.
Vmax for the cleavage of substrates by the purified target protease and Vmax for substrates cleaved by the crude mix protease were each calculated using conventional kinetic modeling calculations already described in the art.

[3] = tested on: Taenia solium crude mix; assay: Competitor assay of vehicles against high Vmax substrate cocktails (Step III), crude mix; format: biochemical
Text: Step III for a crude mix proceeds as it would for a purified protease, except that Vm is used instead of kcat.
One of the most intriguing findings in this experiment was that a highly similar inhibition pattern for the competitor assay resulted when the crude mix was employed as the source of the target protease. Although there were some variations in the effects of inhibitor dilution, the most highly ranked vehicles remained inhibitory consistently in comparison to the profile with the target protease. The relative profile and composition of the top tier of vehicles was identical. Z-LLL-AFC, Z-LLY-AFC, Mu-LY-AFC, Boc-VPR-AFC, Z-SY-AFC, Z-RR-AFC, Z-FLF-AFC, and Z-LGR-AFC consistently emerged as the top eight vehicles (Fig. 5b), respectively, based upon their V values (Table 2). […] It was notable that the three vehicles had very similar V values. […] As was mentioned, this vehicle along with Z-LLL-AFC and Z-LLY-AFC, were consistently the most inhibitory vehicles. The V values of the most inhibitory vehicle series are shown below in Table 2. Again, a clear break between the first and second tier vehicles is discernible for the V value. Table 2. Vehicles and V value rankings.

Compound | % inhibition ([1]; inhibitor 3 X 10^-10 M, 0.0003 µM) | cleavage of AFC substrate (Vmax) [2] | Tier [3] | % inhibition ([1]; vehicle 4 X 10^-5 M, 40 µM) | cleavage of AFC substrate (Vmax) ([2]; listed as M-LY-AFC)
CC(C)C[C@H](NC(=O)OCc1ccccc1)C(=O)N[C@@H](CC(C)C)C(=O)N[C@@H](Cc1ccc(O)cc1)C(=O)CF [Z-LLY-FMK, Z-Leu-Leu-Tyr-FMK] (Cbz-Leu-Leu-Tyr-CH2F) | 0% | – | – | – | –
CC(C)C[C@H](NC(=O)OCc1ccccc1)C(=O)N[C@@H](CC(C)C)C(=O)N[C@@H](CC(C)C)C(=O)Nc1ccc2c(C(F)(F)F)cc(=O)oc2c1 [Z-LLL-AFC, Z-Leu-Leu-Leu-AFC] (Cbz-Leu-Leu-Leu-{AFC}) | – | noncleavable | 1 (The first tier was composed of those vehicles that produced inhibition greater than 50% when in the presence of the 1.4% cocktail) | 0% | –
Mu-Leu-Tyr-AFC [Mu-LY-AFC] | – | not cleaved | 1 (The first tier was composed of those vehicles that produced inhibition greater than 50% when in the presence of the 1.4% cocktail) | 0% | noncleavable
CC(C)C[C@H](NC(=O)OCc1ccccc1)C(=O)N[C@@H](CC(C)C)C(=O)N[C@@H](Cc1ccc(O)cc1)C(=O)Nc1ccc2c(C(F)(F)F)cc(=O)oc2c1 [Z-LLY-AFC, Z-Leu-Leu-Tyr-AFC] (Cbz-Leu-Leu-Tyr-{AFC}) | – | noncleavable | 1 (The first tier was composed of those vehicles that produced inhibition greater than 50% when in the presence of the 1.4% cocktail) | 0% | –
